Among the data in patent US5747490A, “Alpha 1b adrenergic receptor antagonists” (Merck & Co., Inc., priority 1996, dated 1998) are Ki and inhibition values, retold here.

Where only a bound is given, the exact number is not on record here.

For assay [1], the target named is T1, human alpha 1d adrenergic receptor (Homo sapiens, UniProt P25100).
T1 construct: host or cells: stably transfected human alpha 1d cell line (ATCC CRL 11138)
T1 sequence (P25100 1-572): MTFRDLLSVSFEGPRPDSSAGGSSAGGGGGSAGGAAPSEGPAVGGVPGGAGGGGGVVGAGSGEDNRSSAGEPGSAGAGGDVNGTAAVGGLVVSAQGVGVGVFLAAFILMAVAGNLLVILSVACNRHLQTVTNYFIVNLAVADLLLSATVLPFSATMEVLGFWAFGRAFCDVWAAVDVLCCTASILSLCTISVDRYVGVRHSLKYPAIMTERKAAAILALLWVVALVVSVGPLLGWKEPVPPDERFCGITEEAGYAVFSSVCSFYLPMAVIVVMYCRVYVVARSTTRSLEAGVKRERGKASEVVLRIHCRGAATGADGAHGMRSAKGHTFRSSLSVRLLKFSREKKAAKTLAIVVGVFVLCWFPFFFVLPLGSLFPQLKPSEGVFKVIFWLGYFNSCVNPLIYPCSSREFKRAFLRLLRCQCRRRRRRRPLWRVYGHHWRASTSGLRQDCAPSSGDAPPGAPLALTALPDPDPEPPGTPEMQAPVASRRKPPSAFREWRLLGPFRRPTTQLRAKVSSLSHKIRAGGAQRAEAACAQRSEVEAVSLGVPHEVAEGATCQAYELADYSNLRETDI
Kind of assay: Selective Binding assay, alpha 1d ([125I]-HEAT competition binding). The conditions noted are these: Table 1, cloned human receptors; read-out: alpha adrenergic receptor subtype binding, 1d. As for the experimental part: (§1) These competition binding reactions (total volume=200 μl) contained 50 mM Tris-HCl pH 7.4, 5 mM EDTA, 150 mM NaCl, 100 pM [^125 I]-HEAT, membranes prepared from cell lines transfected with the respective alpha 1 subtype expression plasmid and increasing amounts of unlabeled ligand. Reactions were incubated at room temperature for one hour with shaking. Reactions were filtered onto Whatman GF/C glass fiber filters with a Inotec 96 well cell harvester. Filters were washed three times with ice cold buffer and bound radioactivity was determined (Ki).

The target in assay [2] is T2, human alpha 2b adrenergic receptor (Homo sapiens, UniProt P18089).
T2 construct: expressed in transfected cells; host or cells: cloned human receptor
T2 sequence (P18089 1-450): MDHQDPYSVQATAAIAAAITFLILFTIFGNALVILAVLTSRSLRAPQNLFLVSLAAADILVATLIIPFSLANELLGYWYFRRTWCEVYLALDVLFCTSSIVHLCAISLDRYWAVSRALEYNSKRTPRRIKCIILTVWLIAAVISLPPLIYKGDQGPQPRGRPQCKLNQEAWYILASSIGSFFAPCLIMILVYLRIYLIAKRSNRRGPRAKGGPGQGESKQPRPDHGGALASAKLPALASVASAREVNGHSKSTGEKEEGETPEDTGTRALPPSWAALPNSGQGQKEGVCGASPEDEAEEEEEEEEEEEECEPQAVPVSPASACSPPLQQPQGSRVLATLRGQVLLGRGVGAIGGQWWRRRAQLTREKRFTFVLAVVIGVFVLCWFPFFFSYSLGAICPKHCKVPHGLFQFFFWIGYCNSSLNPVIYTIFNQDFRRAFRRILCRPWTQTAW
Kind of assay: Receptor binding, cloned human alpha 2b. The conditions noted are these: for Ki: Table 1, cloned human receptors, read-out: alpha adrenergic receptor subtype binding, 2b. The source says:
(§2) This is accomplished according to methods known in the art using other receptors responsible for mediating diverse biological functions. [See e.g., PCT International Application Publication No. WO94/10989, published 26 May 1994; U.S. Pat. No. 5,403,847, issued Apr. 4, 1995, the contents of which are hereby incorporated by reference]. Compounds which are both selective amongst the various human alpha 1 adrenergic receptor subtypes and which have low affinity for other receptors, such as the alpha 2 adrenergic receptors, the β-adrenergic receptors, the muscarinic receptors, the serotonin receptors, and others are particularly preferred. The absence of these non-specific activities may be confirmed by using cloned and expressed receptors in an analogous fashion to the method disclosed herein for identifying compounds which have high affinity for the various human alpha 1 adrenergic receptors. Furthermore, functional biological tests are used to confirm the effects of identified compounds as alpha 1b adrenergic receptor antagonists.
(§3) Receptor binding data for representative compounds of the present invention in cloned human receptors is shown below in Table 1.

Assay [3] deals with T3, human alpha 1b adrenergic receptor (Homo sapiens, UniProt P35368).
T3 construct: host or cells: stably transfected human alpha 1b cell line (ATCC CRL 11139)
T3 sequence (P35368 1-520): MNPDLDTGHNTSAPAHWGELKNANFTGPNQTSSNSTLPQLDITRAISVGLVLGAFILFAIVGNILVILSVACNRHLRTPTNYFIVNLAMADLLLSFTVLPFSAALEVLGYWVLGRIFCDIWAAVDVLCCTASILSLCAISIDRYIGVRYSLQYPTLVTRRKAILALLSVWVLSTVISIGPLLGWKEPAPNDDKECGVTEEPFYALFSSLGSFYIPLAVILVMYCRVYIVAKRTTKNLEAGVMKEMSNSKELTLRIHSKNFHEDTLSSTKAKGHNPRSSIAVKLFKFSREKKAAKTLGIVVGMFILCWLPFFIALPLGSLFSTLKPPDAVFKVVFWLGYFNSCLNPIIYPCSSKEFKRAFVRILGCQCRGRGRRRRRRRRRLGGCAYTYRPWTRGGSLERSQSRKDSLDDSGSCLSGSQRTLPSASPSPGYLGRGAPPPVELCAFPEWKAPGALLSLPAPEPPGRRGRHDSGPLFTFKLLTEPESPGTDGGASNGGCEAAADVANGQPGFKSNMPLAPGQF
Kind of assay: Alpha 1b Adrenergic Receptor Binding ([125I]-HEAT competition binding). The conditions noted are these: Table 1, cloned human receptors; read-out: alpha adrenergic receptor subtype binding, 1b. As for the experimental part: as §3
Screening assay: Alpha 1b Adrenergic Receptor Binding
as §1, with “Membranes prepared from the stably transfected human alpha 1b cell line (ATCC CRL 11139) were used to identify compounds that bind to the human alpha 1b adrenergic receptor. These” for “These”, “from the alpha 1b” for “from”, “line” for “lines transfected with the respective alpha 1 subtype expression plasmid”

Assay [4] has as its target T4, human alpha 2c adrenergic receptor (Homo sapiens, UniProt P18825).
T4 construct: expressed in transfected cells; host or cells: cloned human receptor
T4 sequence (P18825 1-462): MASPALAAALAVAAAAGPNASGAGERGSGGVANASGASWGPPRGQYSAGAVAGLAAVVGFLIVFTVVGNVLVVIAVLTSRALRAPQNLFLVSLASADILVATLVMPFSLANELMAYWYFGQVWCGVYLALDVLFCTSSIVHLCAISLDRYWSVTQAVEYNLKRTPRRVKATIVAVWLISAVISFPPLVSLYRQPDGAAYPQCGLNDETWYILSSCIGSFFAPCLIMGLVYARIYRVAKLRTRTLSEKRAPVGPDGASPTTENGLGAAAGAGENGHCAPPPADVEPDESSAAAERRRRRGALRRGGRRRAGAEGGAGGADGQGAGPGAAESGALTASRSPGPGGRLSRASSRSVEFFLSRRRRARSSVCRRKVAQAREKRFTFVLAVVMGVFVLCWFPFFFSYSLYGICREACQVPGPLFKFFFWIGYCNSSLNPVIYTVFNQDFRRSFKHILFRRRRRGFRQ
Kind of assay: Receptor binding, cloned human alpha 2c. The conditions noted are these: for Ki: Table 1, cloned human receptors, read-out: alpha adrenergic receptor subtype binding, 2c.
Excerpt: as §2, §3

Assay [5] deals with T5, human alpha 2a adrenergic receptor (Homo sapiens, UniProt P08913).
T5 construct: expressed in transfected cells; host or cells: cloned human receptor
T5 sequence (P08913 1-465): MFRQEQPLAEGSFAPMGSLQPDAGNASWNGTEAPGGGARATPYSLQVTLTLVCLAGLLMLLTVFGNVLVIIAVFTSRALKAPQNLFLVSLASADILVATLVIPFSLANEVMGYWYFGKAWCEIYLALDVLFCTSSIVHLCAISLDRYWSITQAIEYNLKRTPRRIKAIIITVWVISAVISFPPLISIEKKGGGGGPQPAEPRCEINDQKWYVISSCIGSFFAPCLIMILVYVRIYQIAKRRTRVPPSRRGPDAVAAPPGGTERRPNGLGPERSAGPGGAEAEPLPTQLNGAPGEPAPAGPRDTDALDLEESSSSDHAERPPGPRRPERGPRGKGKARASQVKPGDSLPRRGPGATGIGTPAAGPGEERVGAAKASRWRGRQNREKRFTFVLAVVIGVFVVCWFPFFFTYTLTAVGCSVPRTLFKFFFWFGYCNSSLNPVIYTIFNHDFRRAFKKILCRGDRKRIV
Put plainly: Receptor binding, cloned human alpha 2a. As to conditions: for Ki: Table 1, cloned human receptors, read-out: alpha adrenergic receptor subtype binding, 2a.
Excerpt: as §2, §3

The target of assay [6] is T6, human alpha 1a adrenergic receptor (Homo sapiens, UniProt P35348).
T6 construct: host or cells: stably transfected human alpha 1a cell line (ATCC CRL 11140)
T6 sequence (P35348 1-466): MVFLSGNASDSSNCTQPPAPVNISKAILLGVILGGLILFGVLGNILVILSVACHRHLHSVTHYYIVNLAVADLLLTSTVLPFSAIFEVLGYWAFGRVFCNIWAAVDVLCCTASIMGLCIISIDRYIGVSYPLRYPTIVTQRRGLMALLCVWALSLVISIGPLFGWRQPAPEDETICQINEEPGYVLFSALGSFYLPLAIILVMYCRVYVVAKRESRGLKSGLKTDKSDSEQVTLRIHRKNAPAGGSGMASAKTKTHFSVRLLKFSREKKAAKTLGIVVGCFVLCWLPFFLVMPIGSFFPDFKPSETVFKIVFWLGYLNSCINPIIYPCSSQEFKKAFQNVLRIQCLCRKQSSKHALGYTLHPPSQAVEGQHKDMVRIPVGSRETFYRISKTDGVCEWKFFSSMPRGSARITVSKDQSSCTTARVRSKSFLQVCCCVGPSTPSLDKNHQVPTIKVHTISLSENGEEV
Put plainly: Selective Binding assay, alpha 1a ([125I]-HEAT competition binding). The conditions noted are these: Table 1, cloned human receptors; read-out: alpha adrenergic receptor subtype binding, 1a. As for the experimental part:
as §1

With `COc1cc2nc(N3CCN(C(=O)OCc4ccccc4)[C@H](C(=O)NC(C)(C)C)C3)nc(N)c2cc1OC` [Compound 2a, (S)-1-(4-Amino-6,7-dimethoxy-2-quinazolinyl)-4-[(benzyloxy)carbonyl]-3-(1,1-dimethylethylamino)carbonyl piperazine], the Ki was 29 nM in assay [1]; > 10000 nM in assay [2]; 1 nM in assay [3]; 715 nM in assay [4]; 683 nM in assay [5]; 463 nM in assay [6].
For the molecule `COc1cc2nc(N3CCN[C@H](C(=O)NC(C)(C)C)C3)nc(N)c2cc1OC` [Compound 3a, (S)-1-(4-Amino-6,7-dimethoxy-2-quinazolinyl)-3-(1,1-dimethylethylamino)carbonyl piperazine], the Ki is 111 nM in assay [1]; > 10000 nM in assay [2]; 2.7 nM in assay [3]; 736 nM in assay [4]; 1170 nM in assay [5]; 1190 nM in assay [6].
Consider `COc1cc2nc(N3CCN(C(=O)c4ccco4)[C@H](C(=O)NC(C)(C)C)C3)nc(N)c2cc1OC` [Compound 4a], for which the Ki in assay [1] was 97 nM; in assay [3] it was 3.4 nM; in assay [6] it was > 3670 nM. The inhibition at 1 µM in assay [2] (read-out: alpha adrenergic receptor subtype binding, 2b, % @ 1 uM) came to 16%; in assay [4] (read-out: alpha adrenergic receptor subtype binding, 2c, % @ 1 uM), 42%; in assay [5] (read-out: alpha adrenergic receptor subtype binding, 2a, % @ 1 uM), 23%. Besides, the inhibition at 10 µM in assay [2] (read-out: alpha adrenergic receptor subtype binding, 2b, % @ 10 uM) was 23%; in assay [4] (read-out: alpha adrenergic receptor subtype binding, 2c, % @ 10 uM), 71%; in assay [5] (read-out: alpha adrenergic receptor subtype binding, 2a, % @ 10 uM), 65%.
